# Patent US20050239656A1, “Pyridine compounds or salts thereof and herbicides containing the same” (priority 2002, published 2005)
# Experiments:
# barnyardgrass [1] = experiment: Test Example 1: foliage treatment, upland pot test; type: in vivo, Echinochloa crus-galli L.; details: active ingredient 1000 g/ha, observed 18th to 23rd day, 0 = non-treated, 100 = complete kill
# Text: (§1) Upland field soil was put into a 1/170,000 ha pot, and seed of various plants were sown. Then, when the plants reached predetermined leaf stages ((1) barnyardgrass: 1.3 to 2.8 leaf stages, (2) crabgrass: 1.0 to 2.8 leaf stages, (3) green foxtail: 1.3 to 2.6 leaf stages, (4) redroot pigweed: 0.1 to 1.2 leaf stages, (5) prickly sida: 0.1 to 1.2 leaf stages, (6) velvetleaf: 0.1 to 1.2 leaf stages, (7) tall morningglory: 0.1 to 1.5 leaf stages, (8) rice: 1.2 to 2.6 leaf stages, (9) wheat: 1.3 to 2.4 leaf stages, (10) corn, 2.1 to 3.2 leaf stages, (11) soybean: 0.1 to 0.4 leaf stage), a wettable powder or emulsifiable concentrate having the compound of the present invention formulated in accordance with a usual formulation method, was weighed so that the active ingredient would be a predetermined amount, and diluted with water in an amount of 500 L/ha. To the diluted solution, 0.1% (v/v) of agricultural spreader was added. The herbicide thus adjusted was applied by a small size sprayer for foliage treatment. On the 18th to 23rd days after the application of the herbicide, the growth of the respective plants was visually observed, and the herbicidal effects were evaluated by the growth controlling degrees (%) ranging from 0 (equivalent to the non-treated plot) to 100 (complete kill), whereby the results shown in Table 3, were obtained.
# redroot pigweed [2] = experiment: Test Example 1: foliage treatment, upland pot test; type: in vivo, Amaranthus retroflexus L.; details: active ingredient 1000 g/ha, observed 18th to 23rd day, 0 = non-treated, 100 = complete kill
# Text: as §1
# prickly sida [3] = experiment: Test Example 1: foliage treatment, upland pot test; type: in vivo, Sida spinosa L.; details: active ingredient 1000 g/ha, observed 18th to 23rd day, 0 = non-treated, 100 = complete kill
# Text: as §1
# velvetleaf [4] = experiment: Test Example 1: foliage treatment, upland pot test; type: in vivo, Abutilon theophrasti MEDIC.; details: active ingredient 1000 g/ha, observed 18th to 23rd day, 0 = non-treated, 100 = complete kill
# Text: as §1
# rice [5] = experiment: Test Example 1: foliage treatment, upland pot test; type: in vivo, Oryza sativa L.; details: crop, active ingredient 1000 g/ha, observed 18th to 23rd day, 0 = non-treated, 100 = complete kill
# Text: as §1
# corn [6] = experiment: Test Example 1: foliage treatment, upland pot test; type: in vivo, Zea mays L.; details: crop, active ingredient 1000 g/ha, observed 18th to 23rd day, 0 = non-treated, 100 = complete kill
# Text: as §1
# soybean [7] = experiment: Test Example 1: foliage treatment, upland pot test; type: in vivo, Glycine max Merr.; details: crop, active ingredient 1000 g/ha, observed 18th to 23rd day, 0 = non-treated, 100 = complete kill
# Text: as §1
# barnyardgrass [8] = experiment: Test Example 2: soil surface treatment, upland pot test; type: in vivo, Echinochloa crus-galli L.; details: active ingredient 500 g/ha
# Procedure, shortened: (§2)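 Herbicidal effect is given as percent growth control, assessed by eye 20 to 28 days post-spray against untreated plants (0) and full kill (100). Treatment: soil-surface application one day after sowing, formulated product diluted in 1,500 L/ha water, upland soil, 1/170,000 ha pots.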
# crabgrass = experiment: as above; type: in vivo, Digitaria sanguinalis L.; details: active ingredient 500 g/ha
# Procedure, shortened: as §2
# green foxtail = experiment: as above; type: in vivo, Setaria viridis L.; details: active ingredient 500 g/ha
# Procedure, shortened: as §2
# redroot pigweed [9] = experiment: as above; type: in vivo, Amaranthus retroflexus L.; details: active ingredient 500 g/ha
# Procedure, shortened: as §2
# prickly sida [10] = experiment: as above; type: in vivo, Sida spinosa L.; details: active ingredient 500 g/ha
# Procedure, shortened: as §2
# velvetleaf [11] = experiment: as above; type: in vivo, Abutilon theophrasti MEDIC.; details: active ingredient 500 g/ha
# Procedure, shortened: as §2
# rice [12] = experiment: as above; type: in vivo, Oryza sativa L.; details: active ingredient 500 g/ha
# Procedure, shortened: as §2
# corn [13] = experiment: as above; type: in vivo, Zea mays L.; details: active ingredient 500 g/ha
# Procedure, shortened: as §2
# soybean [14] = experiment: as above; type: in vivo, Glycine max Merr.; details: active ingredient 500 g/ha
# Procedure, shortened: as §2
# barnyardgrass [15] = experiment: Test Example 3: paddy pot test, application under submerged conditions; type: in vivo, Echinochloa crus-galli L.; details: submerged application at 0.5 leaf stage, visually observed 14 days after application, 0 = non-treated, 100 = complete kill
# Procedure, shortened: (§3)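 Visual rating of growth control (0% equals untreated, 100% complete kill) made 14 days after treatment. Compound, formulated as wettable powder or emulsifiable concentrate and diluted in water, was pipetted under submerged conditions at predetermined active-ingredient doses once weeds reached 0.5-leaf (barnyardgrass, bulrush) or primary-leaf (wapato, from tubers) stage. Pots of greenhouse paddy soil held 3–4 cm flooding.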
# japanese bulrush = experiment: as above; type: in vivo, Scirpus juncoides; details: submerged application at 0.5 leaf stage, visually observed 14 days after application, 0 = non-treated, 100 = complete kill
# Procedure, shortened: as §3
# japanese ribbon wapato = experiment: as above; type: in vivo, Sagittaria pygniaea; details: submerged application at primary leaf stage, visually observed 14 days after application, 0 = non-treated, 100 = complete kill
# Procedure, shortened: as §3
# rice (var. Nihonbare) = experiment: Test Example 3: paddy pot test, transplanted rice; type: in vivo, Oryza sativa L.; details: applied 4th day after transplantation, visually observed 21st day after application, 0 = non-treated, 100 = complete kill
# Procedure, shortened: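 Visual crop-injury rating (0 = as untreated, 100 = complete kill, %) taken 21 days post-application. Treatment: formulated compound, water-diluted, pipetted into 3–4 cm flood water at a preset active-ingredient dose, 4 days after transplanting 2-leaf Nihonbare rice 3 cm deep in puddled paddy soil.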
# [16] = observed day 21, 0 = non-treated, 100 = complete kill
SMILES,Growth controlling degree (%) Barnyardgrass (barnyardgrass [15]; active ingredient 250 g/ha) [%],Growth controlling degree (%) Japanese bulrush (japanese bulrush; active ingredient 250 g/ha) [%],Growth controlling degree (%) Japanese ribbon wapato (japanese ribbon wapato; active ingredient 250 g/ha) [%],Growth controlling degree (%) Rice (rice (var. Nihonbare); active ingredient 250 g/ha) [%],Growth controlling degree (%) Barnyardgrass (barnyardgrass [8]; observed 20th to 28th day) [%],Growth controlling degree (%) Crabgrass (crabgrass; observed 20th to 28th day) [%],Growth controlling degree (%) Green foxtail (green foxtail; observed 20th to 28th day) [%],Growth controlling degree (%) Redroot pigweed (redroot pigweed [9]; observed 20th to 28th day) [%],Growth controlling degree (%) Prickly sida (prickly sida [10]; observed 20th to 28th day) [%],Growth controlling degree (%) Velvetleaf (velvetleaf [11]; observed 20th to 28th day) [%],Growth controlling degree (%) Rice (rice [12]; observed 20th to 28th day) [%],Growth controlling degree (%) Corn (corn [13]; observed 20th to 28th day) [%],Growth controlling degree (%) Soyabean (soybean [14]; observed 20th to 28th day) [%],further results
CC(C)C(c1cnccc1Cl)N(C)C(=O)Cc1cccc(C(F)(F)F)c1F (centres unmarked) [I-74],–,–,–,–,–,–,–,–,–,–,–,–,–,Growth controlling degree (%) Barnyardgrass (barnyardgrass [1]): 50%; Growth controlling degree (%) Redroot pigweed (redroot pigweed [2]): 60%; Growth controlling degree (%) Prickly sida (prickly sida [3]): 80%; Growth controlling degree (%) Velvetleaf (velvetleaf [4]): 90%; Growth controlling degree (%) Rice (rice [5]): 20%; Growth controlling degree (%) Corn (corn [6]): 30%; Growth controlling degree (%) Soybean (soybean [7]): 30%
CC(C)C(c1cnccc1C(F)(F)F)N(C)C(=O)COc1ccc(F)cc1F (centres unmarked) [Compound I-246],100,98,70,10,–,–,–,–,–,–,–,–,–,Growth controlling degree (%) Barnyardgrass (barnyardgrass [8]; [16]): 98%; Growth controlling degree (%) Crabgrass (crabgrass; [16]): 95%; Growth controlling degree (%) Green foxtail (green foxtail; [16]): 98%; Growth controlling degree (%) Redroot pigweed (redroot pigweed [9]; [16]): 50%; Growth controlling degree (%) Prickly sida (prickly sida [10]; [16]): 80%; Growth controlling degree (%) Velvetleaf (velvetleaf [11]; [16]): 30%; Growth controlling degree (%) Rice (rice [12]; [16]): 20%; Growth controlling degree (%) Corn (corn [13]; [16]): 40%; Growth controlling degree (%) Soyabean (soybean [14]; [16]): 40%
CCN(C(=O)Cc1ccc(C(F)(F)F)cc1)C(c1cnccc1C(F)(F)F)C(C)C (centres unmarked) [Compound I-79],100,70,40,20,100,100,100,80,100,80,10,10,10,–
CC(C)C(c1cnccc1C(F)(F)F)N(C)C(=O)COc1cccc(F)c1 (centres unmarked) [Compound I-242],100,95,70,0,98,98,100,90,98,70,10,40,10,–
CC(C)C(c1cnccc1Cl)N(C)C(=O)Cc1ccc(Cl)cc1 (centres unmarked) [I-82],98,98,0,30,80,90,70,60,0,0,30,10,0,–
CC(C)C(c1cnccc1C(F)(F)F)N(C)C(=O)COc1ccc(Br)cc1 (centres unmarked) [I-255],100,95,20,0,–,–,–,–,–,–,–,–,–,Growth controlling degree (%) Barnyardgrass (barnyardgrass [8]; [16]): 95%; Growth controlling degree (%) Crabgrass (crabgrass; [16]): 98%; Growth controlling degree (%) Green foxtail (green foxtail; [16]): 98%; Growth controlling degree (%) Redroot pigweed (redroot pigweed [9]; [16]): 70%; Growth controlling degree (%) Prickly sida (prickly sida [10]; [16]): 98%; Growth controlling degree (%) Velvetleaf (velvetleaf [11]; [16]): 70%; Growth controlling degree (%) Rice (rice [12]; [16]): 20%; Growth controlling degree (%) Corn (corn [13]; [16]): 30%; Growth controlling degree (%) Soyabean (soybean [14]; [16]): 10%
CC(C)C(c1cnccc1Cl)N(C)C(=O)Cc1ccc(F)c(F)c1 (centres unmarked) [I-73],–,–,–,–,–,–,–,–,–,–,–,–,–,Growth controlling degree (%) Barnyardgrass (barnyardgrass [1]): 40%; Growth controlling degree (%) Redroot pigweed (redroot pigweed [2]): 60%; Growth controlling degree (%) Prickly sida (prickly sida [3]): 85%; Growth controlling degree (%) Velvetleaf (velvetleaf [4]): 90%; Growth controlling degree (%) Rice (rice [5]): 30%; Growth controlling degree (%) Corn (corn [6]): 0%; Growth controlling degree (%) Soybean (soybean [7]): 70%; Growth controlling degree (%) Barnyardgrass (barnyardgrass [15]; active ingredient 125 g/ha): 98%; Growth controlling degree (%) Japanese bulrush (japanese bulrush; active ingredient 125 g/ha): 90%; Growth controlling degree (%) Japanese ribbon wapato (japanese ribbon wapato; active ingredient 125 g/ha): 20%; Growth controlling degree (%) Rice (rice (var. Nihonbare); active ingredient 125 g/ha): 0%
CC(C)C(c1cnccc1Cl)N(C)C(=O)Cc1ccccc1Cl (centres unmarked) [Compound I-81],98,95,0,10,98,90,70,70,10,0,0,0,0,–
CC(C)C(c1cnccc1C(F)(F)F)N(C)C(=O)COc1ccccc1F (centres unmarked) [Compound I-243],100,98,70,0,90,100,100,80,90,30,10,40,10,–
CC(C)C(c1cnccc1C(F)(F)F)N(C)C(=O)Cc1cc(F)cc(C(F)(F)F)c1 (centres unmarked) [Compound I-97],100,80,0,0,60,98,100,60,90,40,40,20,10,–
